{
  "source": "patent US20060189546A1",
  "about": "“Compounds for treating autoimmune and demyelinating diseases” (priority 2005, published 2006)",
  "key": {"[1]": {"system": "Collagen Antibody Induced Arthritis", "settings": "Lange et al., Annals of Rheumatoid Disease 64:599-605, 2005; cited from earlier work"}, "[2]": {"system": "Experimental Autoimmune Encephalomyelitis (EAE)", "test": "Acute EAE, daily dosing for 15 days (Example 5)", "type": "in vivo, guinea pigs", "settings": "Symadex 6 mg/kg, mitoxantrone 0.35 mg/kg", "description": "Accordingly, three randomized cohorts of guinea pigs with EAE induced by the method of Example 2, were treated, respectively, with 6 mg/kg of Symadex™ (full salt hydrate) and 0.35 mg/kg of mitoxantrone. Animals were treated daily, by intraperitoneal injection, for 15 days, starting on day 7 post immunization. Controls were treated with vehicle. We reasoned that 15 consecutive, 6 mg/kg doses of Symadex™ would represent a level of drug exposure that would be commensurate with the “20 mg/kg every 72 hours” regimen in Example 4 and consistent with a mid level exposure between the 20 mg/kg and the 40 mg/kg schedule given weekly, in Example 2. The mitoxantrone dose was selected to reflect a typical high dose given to rats or mice by daily dosing in the prior art, but allometrically scaled to the guinea pig."}, "IL-10": {"system": "IL-10", "test": "Mediator release, IL-10 (Con A-stimulated PBML, sandwich ELISA)", "type": "cell-based", "settings": "Homo sapiens, IL-10 release", "description": "(§1) In this experiment, test compound and/or vehicle were preincubated with human peripheral blood mononuclear leukocyte (PBML, 1×10^6/ml) in RPMI buffer pH 7.4 for 2 hours. Concanavalin A (Con A, 20 μg/ml) was then added to stimulate the cells overnight in 5% CO2 at 37° C. IL-4 and IL-10 cytokine levels in the conditioned medium were then quantified using a sandwich ELISA kit. Compounds were screened at 10, 1, 0.1, 0.01 and 0.001 μM."}, "IL-4": {"system": "IL-4", "test": "Mediator release, IL-4 (Con A-stimulated PBML, sandwich ELISA)", "type": "cell-based", "settings": "Homo sapiens", "description": "as §1"}, "B-lymphocyte cells": {"system": "B-lymphocyte cells", "test": "Cell Proliferation, B-Cell + LPS ([3H]thymidine incorporation)", "type": "cell-based, balb/c mice", "settings": "Mus musculus, B-Cell + LPS", "description": "B-lymphocyte cells isolated from the spleen of balb/c mice weighing 17±1 g were used. Test compound and/or vehicle were incubated with the cells (1.5×10^6/ml) in the presence of 10 μg/ml lipopolysaccharide (LPS) in AIM-V medium pH 7.4 at 37° C. for 24 hours. [^3H]Thymidine (120 nM) was then added for an additional overnight incubation period. Thymidine incorporation was assessed by liquid scintillation counting.\n(§2) Test compound-induced suppression of cell proliferation by 50 percent or more (≧50%) relative to vehicle control response indicates significant inhibitory activity."}, "T-lymphocyte cells": {"system": "T-lymphocyte cells", "test": "Cell Proliferation, T-Cell + Con A ([3H]thymidine incorporation)", "type": "cell-based, balb/c mice", "settings": "Mus musculus, T-Cell + Con A", "description": "T-lymphocyte cells isolated from thymus of balb/c mice weighing 17±1 g were used. Test compound and/or vehicle is incubated with the cells (4×10^6/ml) in the presence of 3 μg/mL Concanavalin A (Con A) in AIM-V medium pH 7.4 at 37° C. for 24 hours. [^3H]Thymidine (120 nM) was then added for an additional overnight incubation period. Thymidine incorporation was assessed by liquid scintillation counting.\nas §2"}, "[3]": {"settings": "1 nM, read-out: % Growth Inhibition"}, "[4]": {"settings": "10 nM, read-out: % Growth Inhibition"}, "[5]": {"settings": "0.1 μM, read-out: % Growth Inhibition"}, "[6]": {"settings": "1 μM, read-out: % Growth Inhibition"}, "[7]": {"settings": "10 μM, read-out: % Growth Inhibition"}},
  "data": [
    {"smiles": "CN(Cc1cnc2nc(N)nc(N)c2n1)c1ccc(C(=O)N[C@@H](CCC(=O)O)C(=O)O)cc1", "note": "[Methotrexate]", "values": [
      {"measurement": "benefit in antibody induced arthritis models", "setting": "[1]", "result": "diminishing benefit"}
    ]},
    {"smiles": "O=C1c2c(O)ccc(O)c2C(=O)c2c(NCCNCCO)ccc(NCCNCCO)c21", "note": "[Mitoxantrone, reference compound]", "values": [
      {"measurement": "clinical score (neurological impairment)", "setting": "[2]; daily i.p. for 15 days from day 7", "result": "the initial rise in neurological impairment is arrested"},
      {"measurement": "weight gain", "setting": "[2]; daily i.p. for 15 days", "result": "impairs weight gain"},
      {"measurement": "reduction of meningeal inflammation (M) pathology score", "setting": "[2]; necropsy after 15 daily doses", "result": "statistically significant reduction in meningeal inflammation"},
      {"measurement": "reduction of perivascular cuffing (P), myelitis (E) and demyelination (D) pathology scores", "setting": "[2]; necropsy after 15 daily doses", "result": "statistically significant differences (p value<0.05) from control"},
      {"measurement": "IC50", "setting": "IL-10", "result": 759, "unit": "nM"},
      {"measurement": "inhibition at 0.001 µM", "setting": "IL-10; [3]", "result": 2, "unit": "%"},
      {"measurement": "inhibition at 0.01 µM", "setting": "IL-10; [4]", "result": 1, "unit": "%"},
      {"measurement": "inhibition at 0.1 µM", "setting": "IL-10; [5]", "result": 5, "unit": "%"},
      {"measurement": "inhibition at 1 µM", "setting": "IL-10; [6]", "result": 60, "unit": "%"},
      {"measurement": "inhibition at 10 µM", "setting": "IL-10; [7]", "result": 102, "unit": "%"},
      {"measurement": "% inhibition of IL-4 release at 0.001 µM", "setting": "IL-4; [3]", "result": 11, "unit": "%"},
      {"measurement": "% inhibition of IL-4 release at 0.01 µM", "setting": "IL-4; [4]", "result": 13, "unit": "%"},
      {"measurement": "% inhibition of IL-4 release at 0.1 µM", "setting": "IL-4; [5]", "result": 18, "unit": "%"},
      {"measurement": "% inhibition of IL-4 release at 1 µM", "setting": "IL-4; [6]", "result": -4, "unit": "%"},
      {"measurement": "% inhibition of IL-4 release at 10 µM", "setting": "IL-4; [7]", "result": 108, "unit": "%"},
      {"measurement": "IC50", "setting": "IL-4; IL-4 release", "result": 2960, "unit": "nM"},
      {"measurement": "IC50", "setting": "B-lymphocyte cells", "result": 7.31, "unit": "nM"},
      {"measurement": "inhibition at 0.001 µM", "setting": "B-lymphocyte cells; [3]", "result": 18, "unit": "%"},
      {"measurement": "inhibition at 0.01 µM", "setting": "B-lymphocyte cells; [4]", "result": 54, "unit": "%"},
      {"measurement": "inhibition at 0.1 µM", "setting": "B-lymphocyte cells; [5]", "result": 93, "unit": "%"},
      {"measurement": "inhibition at 1 µM", "setting": "B-lymphocyte cells; [6]", "result": 102, "unit": "%"},
      {"measurement": "inhibition at 10 µM", "setting": "B-lymphocyte cells; [7]", "result": 102, "unit": "%"},
      {"measurement": "IC50", "setting": "T-lymphocyte cells", "result": 32, "unit": "nM"},
      {"measurement": "inhibition at 0.001 µM", "setting": "T-lymphocyte cells; [3]", "result": -1, "unit": "%"},
      {"measurement": "inhibition at 0.01 µM", "setting": "T-lymphocyte cells; [4]", "result": 19, "unit": "%"},
      {"measurement": "inhibition at 0.1 µM", "setting": "T-lymphocyte cells; [5]", "result": 80, "unit": "%"},
      {"measurement": "inhibition at 1 µM", "setting": "T-lymphocyte cells; [6]", "result": 103, "unit": "%"},
      {"measurement": "inhibition at 10 µM", "setting": "T-lymphocyte cells; [7]", "result": 103, "unit": "%"}
    ]}
  ]
}
